Laboratory results as given in patent US9290457B2, “Substituted dihydropyrimidinones and their use as inhibitors of neutrophil elastase activity” (Boehringer Ingelheim International GmbH, priority 2014, dated 2016).
pEC50, pIC50: −log10 of the molar value. Converted amounts (≈) assume the structure as drawn.

Tests used:
neutrophil elastase [1] = target: T1, neutrophil elastase (Homo sapiens (Human), UniProt P08246); experiment: Human Neutrophil Elastase Assay; type: biochemical; conditions: substrate MeOSuc-Ala-Ala-Pro-Val-AMC
Target sequence in this assay (P08246 30-247): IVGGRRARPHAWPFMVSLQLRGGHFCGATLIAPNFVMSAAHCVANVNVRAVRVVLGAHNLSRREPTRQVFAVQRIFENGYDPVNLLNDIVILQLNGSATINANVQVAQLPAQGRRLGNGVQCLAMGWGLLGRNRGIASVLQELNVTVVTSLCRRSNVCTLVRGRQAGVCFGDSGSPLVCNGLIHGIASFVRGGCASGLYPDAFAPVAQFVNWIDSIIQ

neutrophil elastase [2] = target: T1, neutrophil elastase; experiment: Neutrophil elastase inhibitory activity in human plasma; type: biochemical; conditions: zymosan-stimulated human plasma, substrate MeOSuc-Ala-Ala-Pro-Val-AMC
Description: Assay for the Determination of Neutrophil Elastase Inhibitory Activity in Human Plasma
Citrated blood from human healthy donors is mixed with zymosan suspension and incubated at room temperature. This leads to the stimulation of neutrophils and the release of neutrophil elastase into the plasma. The stimulated blood is centrifuged to generate the neutrophil elastase enriched plasma.
Preparation of Zymosan Working Solution:
• A single 45 ml blood sample is taken into a 50 ml tube containing citrate (3.13%, 5 mL) and the tube is gently inverted 4 times. • Immediately after blood sampling, zymosan working solution (5 mL) is added. • After the addition of zymosan working solution, the tubes are capped, mixed gently and incubated at 22° C. for 15 min on a shaker at 20 rpm. • Make 10 ml aliquots after the incubation time. • Centrifuge the 15 ml tubes at 800 g for 15 min at 4° C. in a Jouan centrifuge. • Harvest the plasma and make 1-5 ml aliquots. • Store the plasma at −80° C.
Various concentrations of the neutrophil elastase inhibitor are incubated with plasma. Subsequently, the enzyme activity is measured using the fluorogenic substrate MeOSuc-Ala-Ala-Pro-Val-AMC (Bachem Cat. No. I-1270, substrate concentration: 250 μM, pH 7.5, 25 mM TRIS buffer, 250 mM NaCl) in analogous fashion as described for the human neutrophil assay. A dose response curve is generated to calculate the EC50 of the inhibitor. The analysis of the data is performed by the calculation of the percentage of fluorescence in the presence of the test compound compared to the fluorescence of the vehicle control after subtracting the background fluorescence: An inhibitor of the neutrophil elastase enzyme will give values between 100% control (no inhibition) and 0% control (complete inhibition).
Target sequence in this assay (P08246 30-267): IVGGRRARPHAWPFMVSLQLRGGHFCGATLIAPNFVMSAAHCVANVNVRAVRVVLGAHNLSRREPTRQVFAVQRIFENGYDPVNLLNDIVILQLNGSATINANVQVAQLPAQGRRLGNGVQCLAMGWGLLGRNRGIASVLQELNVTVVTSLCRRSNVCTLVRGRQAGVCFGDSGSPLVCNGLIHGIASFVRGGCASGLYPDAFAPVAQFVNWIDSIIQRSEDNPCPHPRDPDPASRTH

[3] = Metabolic stability with human liver microsomes; type: in vitro ADME; conditions: pooled human liver microsomes, 1 μM compound, 37° C.; for half-life at 1 μM: pH 7.6, read-out: t1/2 INVITRO
Description: Assay for the Determination of Metabolic Stability with Human Liver Microsomes
The metabolic degradation of the test compound is assayed at 37° C. with pooled human liver microsomes. The final incubation volume of 100 μl per time point contains TRIS buffer pH 7.6 (0.1 M), magnesium chloride (5 mM), microsomal protein (1 mg/ml) and the test compound at a final concentration of 1 μM. Following a short preincubation period at 37° C., the reactions are initiated by addition of beta-nicotinamide adenine dinucleotide phosphate, reduced form (NADPH, 1 mM) and terminated by transferring an aliquot into acetonitrile after different time points. Additionally, the NADPH-independent degradation is monitored in incubations without NADPH, terminated at the last time point. The [%] remaining test compound after NADPH independent incubation is reflected by the parameter c(control) (metabolic stability). The quenched incubations are pelleted by centrifugation (10,000 g, 5 min) An aliquot of the supernatant is assayed by LC-MS/MS for the amount of parent compound.
The half-life (t1/2 INVITRO) is determined by the slope of the semilogarithmic plot of the concentration-time profile. The intrinsic clearance (CL_[…]) is calculated by considering the amount of protein in the incubation: CL_[…][μl/min/mg protein]=(ln 2/(half-life[min]*protein content[mg/ml]))*1,000.
The half-life (t1/2 INVITRO) values of selected compounds in the metabolic stability assay human liver microsomes described above are listed in Table 3.

Aqueous solubility = type: physicochemical; conditions: McIlvaine buffer pH 6.8, 2.5% DMSO; for Aqueous solubility: 24 h; for solubility at 24 h: McIlvaine buffer with 2.5% DMSO, aqueous buffer, kinetic from dmso stock
Description: Assay for Determination of Aqueous Solubility
Starting from a 10 mM DMSO stock solution, aliquots are diluted with acetonitrile/water (1/1) and McIlvaine buffer pH 6.8, respectively. After 24 h of shaking, the solutions or suspensions are filtered and analyzed by LC-UV. The amount dissolved in buffer is compared to the amount dissolved in the acetonitrile/water (1/1) solution. Solubility is measured from 0.001 to 0.125 mg/ml at a DMSO concentration of 2.5%. If more than 90% of the compound is dissolved in buffer, the value is marked with “>”.

pIC50 (neutrophil elastase [1])	pEC50 (neutrophil elastase [2])	t1/2 INVITRO [3] [min]	Aqueous solubility (Aqueous solubility) [mg/mL]	half-life at 1 μM [3] [min]	solubility at 24 h (Aqueous solubility) [µg/mL]	Compound
> 9.00	9.00	130	0.070	–	–	CC(=O)C1=C(C)N(c2cccc(C(F)(F)F)c2)C(=O)N(C)C1c1ccc(C#N)cc1C(=O)NCC#N (centres unmarked) [Example 1.6]
> 9.00	9.00	110	0.076	–	–	CC(=O)C1=C(C)N(c2cccc(C(F)(F)F)c2)C(=O)N(C)C1c1ccc(C#N)cc1C(=O)NC1CC1 (centres unmarked) [Example 1.8]
> 9.00	9.00	>130	0.066	–	–	CC(=O)C1=C(C)N(c2cccc(C(F)(F)F)c2)C(=O)N(C)C1c1ccc(C#N)cc1C(=O)NCCF (centres unmarked) [Example 1.10]
8.85	8.70	–	–	> 130	65 (≈ 123 µM)	CC(=O)C1=C(C)N(c2cccc(C(F)(F)F)c2)C(=O)N(C)C1c1ccc(C#N)cc1C(=O)NCC(C)(C)O (centres unmarked) [Example 1.22]
> 9.00	8.70	–	–	120	73 (≈ 130 µM)	CC(=O)C1=C(C)N(c2cccc(C(F)(F)F)c2)C(=O)N(C)C1c1ccc(C#N)cc1C(=O)N1CCn2ncnc2C1 (centres unmarked) [Example 1.73]
> 9.00	9.00	>130	0.051	–	–	CNC(=O)c1cc(C#N)ccc1[C@@H]1C(C(C)=O)=C(C)N(c2cccc(C(F)(F)F)c2)C(=O)N1C [Example 13.1]
> 9.00	9.00	–	–	> 130	73 (≈ 140 µM)	CC(=O)C1=C(C)N(c2cccc(C(F)(F)F)c2)C(=O)N(C)[C@@H]1c1ccc(C#N)cc1-c1ccc(=O)n(C)c1 [Example 16, 4-[(R)-5-Acetyl-3,6-dimethyl-2-oxo-1-(3-trifluoromethyl-phenyl)-1,2,3,4-tetrahydro-pyrimidin-4-yl]-3-(1-methyl-6-oxo-1,6-dihydro-pyridin-3-yl)-benzonitrile]
> 9.00	8.30	–	–	> 130	62 (≈ 119 µM)	CC(=O)C1=C(C)N(c2cccc(C(F)(F)F)c2)C(=O)N(C)[C@@H]1c1ccc(C#N)cc1-c1ccn(C)c(=O)c1 [Example 17, 4-[(R)-5-Acetyl-3,6-dimethyl-2-oxo-1-(3-trifluoromethyl-phenyl)-1,2,3,4-tetrahydro-pyrimidin-4-yl]-3-(1-methyl-2-oxo-1,2-dihydro-pyridin-4-yl)-benzonitrile]
